From patent publication US10202604B2, “Methods of using microRNA-141” (Stemirna Therapeutics Co., Ltd., priority 2016, dated 2019)

Tests used:
Du145 cells = assay: Boyden chamber Matrigel invasion assay; assay type: cell-based, human; details: miR-141 oligos 30 nM, 48 h vs NC
Protocol: FIGS. 3A-3J show partial suppression of epithelial to mesenchymal transition by miR-141 and CD44 as a direct target of miR-141. FIGS. 3A-3B show qPCR analysis of epithelial to mesenchymal transition markers in bulk (FIG. 3A) or CD44^+ (FIG. 3B) Du145 cells transfected with the miR-141 oligos (30 nM; 48 h). Results were presented as the relative expression levels over the cells transfected with the NC oligos. […] GAPDH was used as control and the relative protein levels after normalizing to GAPDH and NC controls were indicated below each lane. […] Shown below is the actual sequence in the region with the mutated miR-141 binding sequence indicated in grey (below). […] Shown are representative images. […]
Du145 cells transfected with NC or miR-141 oligos at the two doses and time intervals indicated were used in Western blotting. Indicated below are relative expression levels (normalized to respective GAPDH and compared to NC) of each protein determined by densitometric scanning of the individual bands. […]
FIG. 6A: Putative binding site of miR-141 in EZH2 3′-UTR. […] Relative protein levels were measured by densitometry and normalized to GAPDH levels (indicated below). […]
For Boyden Chamber invasion assays, Biocoat Matrigel Invasion Chamber (BD, Franklin Lakes, N.J.) was employed following the manufacturer's instructions. […] Representative images were taken for each membrane and cells were counted. […]

human EZH2 3'-UTR = assay: EZH2 3'-UTR luciferase reporter assay; assay type: cell-based; details: Du145 cells
Protocol: FIG. 6A: Putative binding site of miR-141 in EZH2 3′-UTR. […] FIG. 6C is a qPCR analysis of EZH2 mRNA levels in CD44^+ PCa cells. Bars, mean±SD. *P<0.05; **P<0.01. […] Bars, mean±SD. **P<0.01. […] Western blotting was performed in PC3 and Du145 cells transfected with NC (60 nM) or miR-141 (30 or 60 nM) oligos (72 h). Relative protein levels were measured by densitometry and normalized to GAPDH levels (indicated below). […] Du145 cells plated one day before were treated with 1, 2, and 5 μM of DZNep for 96 h and then cells were harvested for invasion assays. **P<0.01. Inset, WB showing reduced EZH2 proteins by DZNep. […] Du145 cells were transfected with 10 nM scramble siRNA (siCon) or EZH2-targeting siRNAs (siEZH2) or siEZH2 plus anti-miR-141 (30 nM). 48 h later, cells were harvested for invasion assays. Bars, mean±SD. **P<0.01. […]
The human CD44 3′-UTR was amplified from Du145 genomic DNA using primers 5′-[…]-3′ (SEQ ID NO: 2) and 5′-[…]-3′ (SEQ ID NO: 3), as previously described (13). […] The luciferase activities were detected using Duo-luciferase reporter assay system (Promega). Human RAC1, CDC42, CDC42EP3, and ARPC5 3′-UTR luciferase reporter constructs were obtained from SwitchGear Genomics (Menlo Park, Calif.) and luciferase activities were measured per the manufacturer's instructions using LightSwitch luciferase assay kit.

[1] = test system: RAC1, CDC42, ARPC5 and CDC42EP3; assay: Western blotting of Rho GTPase signaling members; assay type: cell-based, human; details: Du145 cells, miR-141 over-expression
Protocol: (§1) Du145 cells transfected with NC or miR-141 oligos at the two doses and time intervals indicated were used in Western blotting. Indicated below are relative expression levels (normalized to respective GAPDH and compared to NC) of each protein determined by densitometric scanning of the individual bands. […] Bars, mean±SD. *P<0.05; **P<0.01. […] Du145 cells were co-transfected with NC or miR-141 oligos (30 nM) in combination with pcDNA3.1 (control) vector or pcDNA-RAC1 or pcDNA-CDC42 expression vector. After 48 h, cells were harvested for invasion assays. […] Du145 cells were infected with Lenti-141 or control lentivirus (MOI 10, 48 h) and then harvested to measure the Rho GTPase activities. Bars, mean±SD. *P<0.05. […] Du145 cells were transfected with the antisense oligos to NC or miR-141 (anti-141; 30 nM) and then used in invasion assays (FIG. 5E). In FIG. 5F and FIG. 5G Du145 cells were transfected with 10 nM of scramble siRNA control (siCon) or siRNAs targeting RAC1 (FIG. 5F) or CDC42 (FIG. 5G), either alone or in combination of anti-141 (30 nM). 48 h later, cells were harvested for invasion assays. Bars, mean±SD. *P<0.05; **P<0.01.

SUZ12 = SUZ12 protein level, Western blotting; assay type: cell-based, human; details: PC3 and Du145, 30 or 60 nM, 72 h
Protocol: FIG. 6A: Putative binding site of miR-141 in EZH2 3′-UTR. […] FIG. 6C is a qPCR analysis of EZH2 mRNA levels in CD44^+ PCa cells. Bars, mean±SD. *P<0.05; **P<0.01. […] Bars, mean±SD. **P<0.01. […] Western blotting was performed in PC3 and Du145 cells transfected with NC (60 nM) or miR-141 (30 or 60 nM) oligos (72 h). Relative protein levels were measured by densitometry and normalized to GAPDH levels (indicated below). […] Du145 cells plated one day before were treated with 1, 2, and 5 μM of DZNep for 96 h and then cells were harvested for invasion assays. **P<0.01. Inset, WB showing reduced EZH2 proteins by DZNep. […] Du145 cells were transfected with 10 nM scramble siRNA (siCon) or EZH2-targeting siRNAs (siEZH2) or siEZH2 plus anti-miR-141 (30 nM). 48 h later, cells were harvested for invasion assays. Bars, mean±SD. **P<0.01. […] Du145 cells were co-transfected with 30 nM NC or miR-141 oligos together with empty vector or pCMV-EZH2 construct. After 48 h, cells were harvested for invasion assay. Bars, mean±SD. **P<0.01.

Human ARPC5 3'-UTR = assay: 3'-UTR luciferase reporter assay; assay type: cell-based; details: Du145 cells; 30 nM miR-141 vs NC oligos
Protocol: as §1
(§2) The human CD44 3′-UTR was amplified from Du145 genomic DNA using primers 5′-[…]-3′ (SEQ ID NO: 2) and 5′-[…]-3′ (SEQ ID NO: 3), as previously described (13). For site-specific mutagenesis, the region in the CD44 3′-UTR (SEQ ID NO: 4, shown with uracils) complementary to the seed sequence of miR-141 (SEQ ID NO: 1) were mutated (TAGTGTT to GGCGCGG; see FIG. 3D). The human EZH2 3′-UTR was amplified from Du145 genomic DNA using primers 5′-GAGCTC-CATCTGCTACCTCCTCCCC-3′ (SEQ ID NO: 6) and 5′-[…]-3′ (SEQ ID NO: 7). For site-specific mutagenesis, the region complementary to the seed sequence of miR-141 was mutated (AAAGTGTT to TATCACAA; see FIG. 6A). The PCR fragments were cloned into pGEM-T vector (Promega, Madison, Wis.) and sequence confirmed. Cells were plated in 24-well plates and co-transfected, using Lipofectamine 2000, with 1 μg firefly luciferase reporter plasmid and 5 ng Renilla plasmid (phRL-CMV) into which the 3′-UTR fragments were cloned. The luciferase activities were detected using Duo-luciferase reporter assay system (Promega). Human RAC1, CDC42, CDC42EP3, and ARPC5 3′-UTR luciferase reporter constructs were obtained from SwitchGear Genomics (Menlo Park, Calif.) and luciferase activities were measured per the manufacturer's instructions using LightSwitch luciferase assay kit.

Human RAC1 3'-UTR = assay: 3'-UTR luciferase reporter assay; assay type: cell-based; details: Du145 cells; 30 nM miR-141 vs NC oligos
Protocol: as §1, §2

Human CDC42 3'-UTR = assay: 3'-UTR luciferase reporter assay; assay type: cell-based; details: Du145 cells; 30 nM miR-141 vs NC oligos
Protocol: as §1, §2

Human CDC42EP3 3'-UTR = assay: 3'-UTR luciferase reporter assay; assay type: cell-based; details: Du145 cells; 30 nM miR-141 vs NC oligos
Protocol: as §1, §2

miR-141: miR-141 mirVana mimics (Life Technologies); microRNA-141 oligonucleotide may have SEQ ID NO: 1; in some experiments over-expressed by lentiviral vectors (UAACACUGUCUGGUAAAGAUGG; listed as RNA, further chemistry not given here) [miR-141 mirVana mimics (Life Technologies); in some experiments over-expressed by lentiviral vectors]
Du145 cell invasion (Du145 cells): inhibited
luciferase activity, WT EZH2 3'-UTR (human EZH2 3'-UTR): suppressed
luciferase activity, mutated EZH2 3'-UTR (human EZH2 3'-UTR): not
protein levels of ARPC5, CDC42EP3, CDC42 and RAC1 [1]: downregulated, to varying degrees
SUZ12 protein level (SUZ12): reduced
luciferase activity of ARPC5 3'-UTR construct (Human ARPC5 3'-UTR): inhibited
luciferase activity of RAC1 3'-UTR construct (Human RAC1 3'-UTR): inhibited
luciferase activity of CDC42 3'-UTR construct (Human CDC42 3'-UTR): inhibited
luciferase activity of CDC42EP3 3'-UTR construct (Human CDC42EP3 3'-UTR): inhibited
